# In ChEMBL document CHEMBL2069212, “Identification and in vivo and in vitro characterization of long acting and melanocortin 4 receptor (MC4-R) selective α-melanocyte-stimulating hormone (α-MSH) analogues” (J Med Chem, 2012):
# The source made the active and inactive calls. The rule behind the calls is not given here.
# Assays:
# [1] = biological target: Melanocyte-stimulating hormone receptor (Homo sapiens, UniProt Q01726); assay: Displacement of [125I]-NAD-alpha-MSH from human recombinant MC1 receptor expressed in BHK570 cells after 90 mins in presence of ovalbumin; type: cell-based
# Melanocortin receptor 3 = Melanocortin receptor 3 (Homo sapiens, UniProt P41968); assay: Displacement of [125I]-NAD-alpha-MSH from human recombinant MC3 receptor expressed in BHK570 cells after 1 hr in presence of ovalbumin; type: cell-based
# Melanocortin receptor 5 = Melanocortin receptor 5 (Homo sapiens, UniProt P33032); assay: Displacement of [125I]-NAD-alpha-MSH from human recombinant MC3 receptor human MC5 expressed in BHK570 cells after 1 hr in presence of ovalbumin; type: cell-based
# Melanocortin receptor 4 [2] = biological target: T1, Melanocortin receptor 4 (Homo sapiens, UniProt P32245); assay: Displacement of [125I]-NAD-alpha-MSH from MC4 receptor after 2 hrs by gamma counting in presence of ovalbumin
# Melanocortin receptor 4 [3] = biological target: T1, Melanocortin receptor 4; assay: Agonist activity at human recombinant MC4 receptor expressed in BHK570 cells assessed as induction of […] accumulation in presence of 0.1% human serum albumin; type: functional, cell-based
# Rattus norvegicus [4] = assay: Antiobesity activity in Sprague-Dawley rat assessed as reduction of food intake at 3 mg/kg, sc qd measured up to 7 hrs relative to control; type: functional; set-up: scale not given: the % may be the effect or the level left; details: route subcutaneous
# Rattus norvegicus [5] = assay: Antiobesity activity in Sprague-Dawley rat assessed as reduction of food intake at 3 mg/kg, sc qd measured after 7 to 24 hrs relative to control; type: functional; set-up: scale not given: the % may be the effect or the level left; details: route subcutaneous
# Rattus norvegicus [6] = assay: Antiobesity activity in Sprague-Dawley rat assessed as reduction of food intake at 3 mg/kg, sc qd measured after 24 to 48 hrs relative to control; type: functional; details: route subcutaneous
# [7] = biological target: Melanocortin receptor 4 (Rattus norvegicus) (UniProt P70596); assay: Agonist activity at rat MC4 receptor; type: functional
# Chain of Melanocortin receptor 4 (Rattus norvegicus) (P70596 whole entry): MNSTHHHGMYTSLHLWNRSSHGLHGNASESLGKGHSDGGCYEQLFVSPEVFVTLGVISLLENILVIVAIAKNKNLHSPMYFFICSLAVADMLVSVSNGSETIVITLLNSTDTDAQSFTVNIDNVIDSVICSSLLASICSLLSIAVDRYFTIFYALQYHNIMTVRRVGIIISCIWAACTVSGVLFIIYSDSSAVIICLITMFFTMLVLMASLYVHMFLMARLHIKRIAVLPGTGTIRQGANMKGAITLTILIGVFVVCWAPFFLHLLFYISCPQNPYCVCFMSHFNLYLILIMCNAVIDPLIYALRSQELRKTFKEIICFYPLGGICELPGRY
# T1 sequence (P32245 whole entry): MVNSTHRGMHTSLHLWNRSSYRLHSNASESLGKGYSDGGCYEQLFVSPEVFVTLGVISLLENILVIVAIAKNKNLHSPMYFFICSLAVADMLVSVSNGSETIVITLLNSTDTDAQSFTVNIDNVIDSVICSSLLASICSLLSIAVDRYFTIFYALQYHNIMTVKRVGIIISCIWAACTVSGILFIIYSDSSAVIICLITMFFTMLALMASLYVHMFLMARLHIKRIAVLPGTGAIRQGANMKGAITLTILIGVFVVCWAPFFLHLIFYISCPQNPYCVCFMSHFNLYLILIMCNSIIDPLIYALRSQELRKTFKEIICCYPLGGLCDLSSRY
# Chain of Melanocyte-stimulating hormone receptor (Q01726 whole entry): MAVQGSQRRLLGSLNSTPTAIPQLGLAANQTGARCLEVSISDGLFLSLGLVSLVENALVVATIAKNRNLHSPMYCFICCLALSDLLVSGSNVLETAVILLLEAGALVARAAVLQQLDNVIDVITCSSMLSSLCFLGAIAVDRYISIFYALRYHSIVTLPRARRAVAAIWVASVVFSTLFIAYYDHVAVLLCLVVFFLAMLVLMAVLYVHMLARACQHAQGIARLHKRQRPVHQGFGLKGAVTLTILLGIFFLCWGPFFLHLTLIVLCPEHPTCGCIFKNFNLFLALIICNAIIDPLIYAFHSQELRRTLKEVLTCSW
# Chain of Melanocortin receptor 5 (P33032 whole entry): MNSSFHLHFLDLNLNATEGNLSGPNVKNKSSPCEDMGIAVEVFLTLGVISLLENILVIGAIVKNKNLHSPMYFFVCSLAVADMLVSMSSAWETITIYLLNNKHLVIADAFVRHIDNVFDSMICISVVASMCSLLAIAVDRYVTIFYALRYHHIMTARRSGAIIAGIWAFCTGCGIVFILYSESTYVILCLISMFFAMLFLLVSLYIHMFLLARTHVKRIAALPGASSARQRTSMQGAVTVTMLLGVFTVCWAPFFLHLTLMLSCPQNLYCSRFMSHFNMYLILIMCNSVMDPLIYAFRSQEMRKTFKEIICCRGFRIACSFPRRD
# Chain of Melanocortin receptor 3 (P41968 whole entry): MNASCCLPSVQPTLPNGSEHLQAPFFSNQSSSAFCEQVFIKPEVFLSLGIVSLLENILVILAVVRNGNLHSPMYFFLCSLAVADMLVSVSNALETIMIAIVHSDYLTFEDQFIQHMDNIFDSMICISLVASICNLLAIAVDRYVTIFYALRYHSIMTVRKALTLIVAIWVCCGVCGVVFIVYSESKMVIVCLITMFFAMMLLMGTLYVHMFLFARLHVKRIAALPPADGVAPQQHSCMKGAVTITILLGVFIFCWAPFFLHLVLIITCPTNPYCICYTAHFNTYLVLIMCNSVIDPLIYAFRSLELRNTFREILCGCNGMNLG
SMILES,Ki [1] [nM],Ki (Melanocortin receptor 3) [nM],Ki (Melanocortin receptor 5) [nM],Ki (Melanocortin receptor 4 [2]) [nM],Activity [7],EC50 (Melanocortin receptor 4 [3]) [nM],Activity (Rattus norvegicus [4]) [%],Activity (Rattus norvegicus [5]) [%],Food intake relative to control (Rattus norvegicus [6]) [%]
CCCCCCCCCCCCCCCC(=O)NCC(=O)N[C@@H](CO)C(=O)N[C@@H](CCC(N)=O)C(=O)N[C@@H](Cc1cnc[nH]1)C(=O)N[C@@H](CO)C(=O)N[C@@H](CCCC)C(=O)N[C@H]1CCC(=O)NCCCC[C@@H](C(N)=O)NC(=O)[C@H](Cc2c[nH]c3ccccc23)NC(=O)[C@H](CCCNC(=N)N)NC(=O)[C@@H](Cc2ccccc2)NC(=O)[C@@H]2C[C@@H](O)CN2C1=O,8,2.5,1.6,0.12,–,0.17,63,58,81
CCCC[C@H](NC(=O)[C@H](CN(C)C)NC(=O)[C@H](Cc1cnc[nH]1)NC(=O)[C@H](CCC(N)=O)NC(=O)[C@H](CO)NC(=O)CNC(=O)COCCOCCNC(=O)CCCCCCCCCCCCCCCc1nnn[nH]1)C(=O)N[C@H]1CCC(=O)NCCCC[C@@H](C(N)=O)NC(=O)[C@H](Cc2c[nH]c3ccccc23)NC(=O)[C@H](CCCNC(=N)N)NC(=O)[C@@H](Cc2ccccc2)NC(=O)[C@@H]2C[C@@H](O)CN2C1=O,440,11,2.9,0.13,–,130,62,60,82
CCCCCCCCCCCCCCCC(=O)NCC(=O)N[C@@H](CO)C(=O)N[C@@H](CCC(N)=O)C(=O)N[C@@H](CCCCNC(=N)N)C(=O)N[C@@H](CO)C(=O)N[C@@H](CCCC)C(=O)N[C@H]1CCC(=O)NCCCC[C@@H](C(N)=O)NC(=O)[C@H](Cc2c[nH]c3ccccc23)NC(=O)[C@H](CCCNC(=N)N)NC(=O)[C@@H](Cc2ccccc2)NC(=O)[C@@H]2C[C@@H](O)CN2C1=O,3.2,2,0.47,0.37,–,0.04,71,57,82
CCCC[C@H](NC(=O)[C@H](CNC(C)C)NC(=O)[C@H](Cc1cnc[nH]1)NC(=O)[C@H](CCC(N)=O)NC(=O)[C@H](CO)NC(=O)CNC(=O)COCCOCCNC(=O)CCCCCCCCCCCCCCCc1nnn[nH]1)C(=O)N[C@H]1CCC(=O)NCCCC[C@@H](C(N)=O)NC(=O)[C@H](Cc2c[nH]c3ccccc23)NC(=O)[C@H](CCCNC(=N)N)NC(=O)[C@@H](Cc2ccccc2)NC(=O)[C@@H]2C[C@@H](O)CN2C1=O,270,13,3.4,0.26,–,15,50,40,72
CCCC[C@H](NC(=O)[C@H](CO)NC(=O)[C@H](CCCCN=C(N)N)NC(=O)[C@H](CCC(N)=O)NC(=O)[C@H](CO)NC(=O)CNC(C)=O)C(=O)N[C@H]1CCC(=O)NCCCC[C@@H](C(N)=O)NC(=O)[C@H](Cc2c[nH]c3ccccc23)NC(=O)[C@H](CCCN=C(N)N)NC(=O)[C@@H](Cc2ccccc2)NC(=O)[C@@H]2C[C@@H](O)CN2C1=O,73,22,4.3,1,–,0.47,–,–,–
CCCCCCCCCCCCCCCC(=O)NCC(=O)NCC(=O)NCC(=O)NCC(=O)NCC(=O)N[C@@H](CCCC)C(=O)N[C@H]1CCC(=O)NCCCC[C@@H](C(N)=O)NC(=O)[C@H](Cc2c[nH]c3ccccc23)NC(=O)[C@H](CCCNC(=N)N)NC(=O)[C@@H](Cc2ccccc2)NC(=O)[C@@H]2C[C@@H](O)CN2C1=O,130,8,3,0.33,–,1,110,76,94
CCCC[C@H](NC(=O)[C@H](CO)NC(=O)[C@H](Cc1cnc[nH]1)NC(=O)[C@H](CCC(N)=O)NC(=O)[C@H](CO)NC(=O)CNC(=O)COCCOCCNC(=O)CCCCCCCCCCCCCCCc1nnn[nH]1)C(=O)N[C@H]1CCC(=O)NCCCC[C@@H](C(N)=O)NC(=O)[C@H](Cc2c[nH]c3ccccc23)NC(=O)[C@H](CCCNC(=N)N)NC(=O)[C@@H](Cc2ccccc2)NC(=O)[C@@H]2C[C@@H](O)CN2C1=O,1200,67,15,0.2,–,170,79,56,92
CCCC[C@H](NC(=O)[C@H](CCCNC(=N)N)NC(=O)[C@H](Cc1cnc[nH]1)NC(=O)[C@H](CCC(N)=O)NC(=O)[C@H](CO)NC(=O)CNC(=O)COCCOCCNC(=O)CCCCCCCCCCCCCCCc1nnn[nH]1)C(=O)N[C@H]1CCC(=O)NCCCC[C@@H](C(N)=O)NC(=O)[C@H](Cc2c[nH]c3ccccc23)NC(=O)[C@H](CCCNC(=N)N)NC(=O)[C@@H](Cc2ccccc2)NC(=O)[C@@H]2C[C@@H](O)CN2C1=O,44,27,3,0.08,–,4.7,46,51,83
CCCC[C@H](NC(=O)[C@H](CN)NC(=O)[C@H](Cc1cnc[nH]1)NC(=O)[C@H](CCC(N)=O)NC(=O)[C@H](CO)NC(=O)CNC(=O)COCCOCCNC(=O)CCCCCCCCCCCCCCCc1nnn[nH]1)C(=O)N[C@H]1CCC(=O)NCCCC[C@@H](C(N)=O)NC(=O)[C@H](Cc2c[nH]c3ccccc23)NC(=O)[C@H](CCCN=C(N)N)NC(=O)[C@@H](Cc2ccccc2)NC(=O)[C@@H]2C[C@@H](O)CN2C1=O,400,42,10,0.17,–,62,–,–,–
CCCC[C@H](NC(=O)[C@@H](N)CNC(=O)[C@H](Cc1cnc[nH]1)NC(=O)[C@H](CCC(N)=O)NC(=O)[C@H](CO)NC(=O)CNC(=O)COCCOCCNC(=O)CCCCCCCCCCCCCCCc1nnn[nH]1)C(=O)N[C@H]1CCC(=O)NCCCC[C@@H](C(N)=O)NC(=O)[C@H](Cc2c[nH]c3ccccc23)NC(=O)[C@H](CCCN=C(N)N)NC(=O)[C@@H](Cc2ccccc2)NC(=O)[C@@H]2C[C@@H](O)CN2C1=O,700,121,40,0.17,–,85,–,–,–

# Further lines, with some results ahead:
Ki [1] [nM],Ki (Melanocortin receptor 3) [nM],Ki (Melanocortin receptor 5) [nM],Ki (Melanocortin receptor 4 [2]) [nM],Activity [7],SMILES,EC50 (Melanocortin receptor 4 [3]) [nM],Activity (Rattus norvegicus [4]) [%],Activity (Rattus norvegicus [5]) [%],Food intake relative to control (Rattus norvegicus [6]) [%]
> 10000,1100,270,35,–,CCCC[C@H](NC(=O)[C@H](CCC(=O)O)NC(=O)[C@H](CCCN=C(N)N)NC(=O)[C@H](CCC(=O)O)NC(=O)[C@H](CCC(=O)O)NC(=O)CNC(=O)COCCOCCNC(=O)CCCCCCCCCCCCCCCc1nnn[nH]1)C(=O)N[C@H]1CCC(=O)NCCCC[C@@H](C(N)=O)NC(=O)[C@H](Cc2c[nH]c3ccccc23)NC(=O)[C@H](CCCN=C(N)N)NC(=O)[C@@H](Cc2ccccc2)NC(=O)[C@@H]2C[C@@H](O)CN2C1=O,270,–,–,–
8100,450,110,7.8,–,CCCC[C@H](NC(=O)[C@H](CCC(=O)O)NC(=O)[C@H](Cc1c[nH]cn1)NC(=O)[C@H](CCC(=O)O)NC(=O)[C@H](CCC(=O)O)NC(=O)CNC(=O)COCCOCCNC(=O)CCCCCCCCCCCCCCCc1nnn[nH]1)C(=O)N[C@H]1CCC(=O)NCCCC[C@@H](C(N)=O)NC(=O)[C@H](Cc2c[nH]c3ccccc23)NC(=O)[C@H](CCCNC(=N)N)NC(=O)[C@@H](Cc2ccccc2)NC(=O)[C@@H]2C[C@@H](O)CN2C1=O,–,75,79,88
–,–,–,–,Active,CCCC[C@H](NC(=O)[C@@H](N)CNC(=O)[C@H](Cc1cnc[nH]1)NC(=O)[C@H](CCC(N)=O)NC(=O)[C@H](CO)NC(=O)CNC(=O)COCCOCCNC(=O)CCCCCCCCCCCCCCCc1nnn[nH]1)C(=O)N[C@H]1CCC(=O)NCCCC[C@@H](C(N)=O)NC(=O)[C@H](Cc2c[nH]c3ccccc23)NC(=O)[C@H](CCCNC(=N)N)NC(=O)[C@@H](Cc2ccccc2)NC(=O)[C@@H]2C[C@@H](O)CN2C1=O,–,82,54,81
> 10000,1600,710,250,–,CCCC[C@H](NC(=O)[C@H](CCC(=O)O)NC(=O)[C@H](CCC(=O)O)NC(=O)[C@H](CCC(=O)O)NC(=O)[C@H](CCC(=O)O)NC(=O)CNC(=O)COCCOCCNC(=O)CCCCCCCCCCCCCCCc1nnn[nH]1)C(=O)N[C@H]1CCC(=O)NCCCC[C@@H](C(N)=O)NC(=O)[C@H](Cc2c[nH]c3ccccc23)NC(=O)[C@H](CCCNC(=N)N)NC(=O)[C@@H](Cc2ccccc2)NC(=O)[C@@H]2C[C@@H](O)CN2C1=O,–,–,–,–
200,45,5.1,4.6,–,CCCC[C@H](NC(=O)[C@H](CO)NC(=O)[C@H](Cc1cnc[nH]1)NC(=O)[C@H](CCC(N)=O)NC(=O)[C@H](CO)NC(=O)CNC(C)=O)C(=O)N[C@H]1CCC(=O)NCCCC[C@@H](C(N)=O)NC(=O)[C@H](Cc2c[nH]c3ccccc23)NC(=O)[C@H](CCCNC(=N)N)NC(=O)[C@@H](Cc2ccccc2)NC(=O)[C@@H]2C[C@@H](O)CN2C1=O,2,55,99,103
